Four substances from patent US12233103B2, “Indoleamine 2,3-dioxygenase based immunotherapy” (IO BIOTECH APS, priority 2008, dated 2025) can be followed below.

Assay [1] relates to TIL cultures from HLA-A2+ melanoma and head and neck cancer patients. The assay can be described thus: HLA-A2/IDO5 tetramer staining of IL-2 treated TIL cultures. Type of assay: cell-based, human. To be noted: tetramer stainings. From the text:
(§1) For tetramer stainings, PBL from cancer patients and healthy donors as well as TIL from cancer patients were stimulated once in vitro with peptide, or analysed directly ex vivo. The CD8 cells were isolated from PBL using the Dynal CD8 negative isolation kit (Dynal Biotech) at day 7. The resulting T cell cultures were stained with PE coupled tetramer, followed by antibody staining with the flourochrome-coupled mAbs: CD8-allophycocyanin/APC-Cy7, CD3-FITC, […], CD45RO-FITC, CD45RA-PE-Cy5 and CD28-allophycocyanin (BD Immunocytometry Systems). Tetramer stainings were performed in PBS+2% FCS, for 15 min, RT, in the dark, whereas antibody stainings were performed in PBS+2% FCS, 4° C., in the dark. The MHC tetramer complexes used were: HLA-A2/IDO5 (ALLEIASCL (SEQ ID NO: 20)) and HLA-A2/HIV-1 pol476-484 ([…] (SEQ ID NO: 18)). The samples were analyzed on BD FACS aria, using DIVA software (BD Biosciences).

Another assay has as its system CD8+ T cells in PBL. Description: HLA-A2/IDO5 tetramer flow cytometry of PBL. Type of assay: cell-based, human. The settings on record: for average frequency of IDO reactive cells of total CD8+ T cells: after in vitro stimulation.
Description: as §1
(In general: Flow cytometry measures light scatter and fluorescence of single cells or particles in a stream.)

For assay [2], the target named is T1, HLA-A2 (Homo sapiens, UniProt P04439, D140Y/D185E/D98H/E176V/E277Q/G131W/G231S/I119V/I121R/I166T/I218V/L300P/L318F/N151K/N90K/P208A/P217A/Q86G/Q94H/R138H/R169H/T345S).
T1 construct: empty HLA-molecules released upon cell lysis, from the TAP-deficient cell line T2; endogenous in cells; host or cells: T2 (TAP-deficient human cell line), cell lysate
Description: Assembly assay for peptide binding to MHC class I molecules. The settings on record: recovery of HLA-A2 at 100, 10, 1 and 0.1 μM peptide. Here is the method:
The binding affinity of the synthetic peptides (Genscript) to HLA-A2 molecules, metabolically labelled with [35^S]-methionine, was measured in the assembly assay, as described previously^33. The assay is based on peptide-mediated stabilization of empty HLA-molecules released upon cell lysis, from the TAP-deficient cell line T2. Stably folded HLA-molecules were immune-precipitated by using the HLA class-I specific, conformation dependent monoclonal (mAb) W6/32 and separated by isoelectric focusing (IEF) gel electrophoresis. Major histocompatibility complex (MHC) heavy-chain bands were quantified using the ImageGauge Phosphoimager program (FUJI Photo Film, Carrolton, TX). The intensity of the band is directly related to the amount of peptide-bound class I MHC complex recovering during the assay. The recovery of HLA-A2 was measured in presence of 100, 10, 1, and 0.1 μM of the relevant peptide. The C50 value was calculated for each peptide as the peptide concentration sufficient for half maximal stabilization.

Assay [3] concerns PBL from HLA-A2 positive cancer patients (breast cancer, melanoma, renal cell carcinoma). Description: IFN-γ ELISPOT after one in vitro peptide stimulation, cancer patients. Type of assay: cell-based, human. To be noted: HLA-A2 positive late stage cancer patients; PBL stimulated once with peptide in vitro. How it is done: (§2) To extend the sensitivity of the enzyme-linked immunospot (ELISPOT) assay, PBL were stimulated once in vitro with peptide prior to analysis^34. At day 0, PBL were thawed and plated in 2 ml/well at a concentration of 2×10^6 cells in 24-well plates (Nunc) in X-vivo medium (BioWhittaker) with 5% heat-inactivated human serum in the presence of 10 μM peptide (GenScript). One day later 40 IU/ml recombinant interleukin-2 (IL-2) (PeproTech) was added to the cultures. The cultured cells were tested in the IFN-γ ELISPOT assay on day 8.
(§3) The ELISPOT assay was used to quantify peptide epitope-specific INF-γ releasing effector cells as described previously^17. In some experiments PBMC were stimulated once in vitro with peptide prior to analysis as described^(34) to extend the sensitivity of the assay. Briefly, nitrocellulose bottomed 96-well plates (MultiScreen MAIP N45; Millipore) were coated with anti-IFN-γ Ab (1-D1K; Mabtech). The wells were washed, blocked by X-vivo medium and the effector cells were added in duplicates at different cell concentrations, with or without 10 μM peptide. The plates were incubated overnight. The following day, medium was discarded and the wells were washed prior to addition of biotinylated secondary Ab (7-B6-1-Biotin; Mabtech). The plates were incubated at room temperature (RD for 2 h, washed, and Avidin-enzyme conjugate (AP-Avidin; Calbiochem/Invitrogen Life Technologies) was added to each well. Plates were incubated at RT for 1 h and the enzyme substrate NBT/BCIP (Invitrogen Life Technologies) was added to each well and incubated at RT for 5-10 min. Upon the emergence of dark purple spots, the reaction was terminated by washing with tap water. The spots were counted using the ImmunoSpot Series 2.0 Analyzer (CTL Analyzers) and the peptide-specific CTL frequency could be calculated from the numbers of spot-forming cells.
(§4) Eleven IDO-derived peptides were selected using algorithms based on the main HLA-A2 specific anchor residues and subsequently synthesized^16. […]

The subject of assay [4] is PBL from healthy individuals. Description: IFN-γ ELISPOT after one in vitro peptide stimulation, healthy individuals. Type of assay: cell-based, human. How it is done:
as §2, §3, §4

The test system of the next assay is IDO. The assay can be described thus: Intracellular IDO staining by flow cytometry. Type of assay: cell-based, human. The source says:
Cancer cell lines and DC were examined for expression of IDO using flow cytometry. After fixation and permeabilization (Cytofix/Cytoperm, BD), cells were stained with mouse anti-IDO antibody (Millipore Corporation) followed by FITC-labeled anti-mouse secondary antibody (DAKO). For all experiments, a negative control only stained with the FITC-coupled secondary antibody was included, to determine the background fluorescence from falsely attached secondary antibodyE and auto-fluorescence. The IDO expression was determined using the staining index defined as MFIpositive−MFIbackground/2×SDbackground where MFI is mean fluorescence intensity. Cells were defined IDO positive if the staining index>1^21.

The subject of assay [5] is HLA-A2. Description: HLA-A2 expression by flow cytometry. Type of assay: cell-based, human. To be noted: CAMA-1+IFN-γ treatment (untreated 43.7). Here is the method: Cancer cells were examined for HLA-A2 expression using flow cytometry. Cells were stained with a fluorochrome-coupled HLA-A2 mAb (BD Bioscience). For comparison, cells were stained with an isotype matched control. The samples were analyzed on BD FACS aria, using DIVA software (BD Biosciences). Assuming normality, HLA-A2 expression was given by a one-tailed two sampled T-test comparing MFIHLA-A2 and MFIIsotype control, where MFI is the Mean Fluorescence 9 Intensity. For p-values<0.05 (significance level) cells were defined HLA-A2+. The fold of expression was defined as MFIHLA-A2/MFIIsotype control.

On to “ALLEIASCL (listed as Homo sapiens) [IDO5]”, for which the “analyzed patients with detectable IDO5-specific T cells among TIL” value in assay [1] is listed as 4 of the 5. Further, the “average frequency of IDO reactive cells of total CD8+ T cells” value in the assay with CD8+ T cells in PBL (7 HLA-A2 positive healthy donors) is recorded as 0.001%; in the assay with CD8+ T cells in PBL (11 HLA-A2 positive cancer patients) it was 0.03%. Moreover, the “detection of IDO-reactive T cells in healthy donors” value in the assay on CD8+ T cells in PBL (tetramer staining, healthy donors) is “No IDO-reactive T cells could be detected”. Also, the “binding affinity to HLA-A2 compared with the high affinity positive control epitope HIV-1 pol476-484” value in the assay with HLA-A2 [2] is recorded as “bound HLA-A2 even better than the high-affinity control epitope”. The “ELISPOT responses in PBL of cancer patients” value (“ELISPOT responses in PBL” below) in assay [3] is listed as “ELISPOT responses were detected”. Also, the “spontaneous ELISPOT responses in healthy controls” value (from here on “spontaneous ELISPOT responses”) in assay [4] was “No spontaneous responses could be detected”.
In the case of “FLVSLLVEI (listed as Homo sapiens) [IDO2]”, the “ELISPOT responses in PBL” value in assay [3] is “ELISPOT responses were detected”. Further, the “spontaneous ELISPOT responses” value in assay [4] is listed as “No spontaneous responses could be detected”.
As for “IFN-γ: cytokine used to treat cancer cells, 100 U/ml for 2 days”, in the assay on IDO (CAMA-1+IFN-γ (untreated CAMA-1 1.3), IDO positive if index>1), the IDO staining index is recorded as 1.8. This substance also came in with an MFIIDO/MFIIsotype control in the assay on IDO (CAMA-1+IFN-γ treatment (untreated 2.3)) of 3.5. For the same substance, the “expression of IDO in CAMA-1 and MDA-MB-231 after treatment” value in the assay on IDO (both cell lines) is given as “increased the expression of IDO”. The “HLA-A2 expression, fold over isotype control” value in the assay with HLA-A2 [5] came out at 141.2.
For “VLSKGDGL (VLSKGDAGL; listed as Homo sapiens) [IDO6]”, the “ELISPOT responses in PBL” value in assay [3] is recorded as “ELISPOT responses were detected”. For the same substance, the “spontaneous ELISPOT responses” value in assay [4] is “No spontaneous responses could be detected”.
